“And” between values parts separate entries of the source, which are not always exact repeats. Equal values may be shown once. Toxic doses and inconclusive results are not listed.

Here are results for eight compounds from PubChem BioAssay AID250 (DTP/NCI, 2004).

The assay deals with BDF1 mice, L1210 leukemia sc, survival T/C. Briefly: NCI In Vivo Anticancer Drug Screen. Data for tumor model L1210 Leukemia (subcutaneous) in B6D2F1 (BDF1) mice. The following applies: higher = longer survival. As to the method:
The antitumor activity of compounds was measured in mice bearing transplantable tumors. Survival or tumor size were measured and the results are expressed as the measurement made in the treated group (T) divided by the measurement made in the vehicle treated control group (C). The tumor model used in this assay is L1210 Leukemia (subcutaneous) in B6D2F1 (BDF1) mice

Where [1] appears, read: endpoint: median survival time, dose: 0.65 mg/kg/injection, schedule: Q01DX Z (sc), vehicle: saline.
[2] abbreviates: endpoint: median survival time, dose: 1.08 mg/kg/injection, schedule: Q01DX Z (sc), vehicle: saline.
Setting [3] is: endpoint: median survival time, dose: 3.0 mg/kg/injection, schedule: Q01DX Z (sc), vehicle: saline.
Where [4] appears, read: endpoint: median survival time, dose: 5.0 mg/kg/injection, schedule: Q01DX Z (sc), vehicle: saline.
Setting [5] is: endpoint: median survival time, dose: 8.4 mg/kg/injection, schedule: Q01DX Z (sc), vehicle: saline.
The mark [6] stands for this setting: endpoint: median survival time, dose: 14.0 mg/kg/injection, schedule: Q01DX Z (sc), vehicle: saline.
The mark [7] stands for this setting: endpoint: median survival time, dose: 23.0 mg/kg/injection, schedule: Q01DX Z (sc), vehicle: saline.

Take `OC(C1CO1)C(O)C1CO1` (stereo not given): the T/C (endpoint: median survival time, dose: 0.12 mg/kg/injection, schedule: Q01DX009 (ip), vehicle: saline) is 98 % of control; the T/C (endpoint: median survival time, dose: 0.25 mg/kg/injection, schedule: Q01DX009 (ip), vehicle: saline) is 107 % of control; the T/C (endpoint: median survival time, dose: 0.5 mg/kg/injection, schedule: Q01DX009 (ip), vehicle: saline) was 107 % of control; the T/C (endpoint: median survival time, dose: 1.0 mg/kg/injection, schedule: Q01DX009 (ip), vehicle: saline) was 122 % of control; the T/C (endpoint: median survival time, dose: 1.0 mg/kg/injection, schedule: Q01DX009 (ip), vehicle: water) was 116 % of control; the T/C (endpoint: median survival time, dose: 1.0 mg/kg/injection, schedule: Q01DX009 (sc), vehicle: water) was 122 % of control. The T/C is 150 % of control (endpoint: median survival time, dose: 2.0 mg/kg/injection, schedule: Q01DX009 (ip), vehicle: saline); 150 % of control (endpoint: median survival time, dose: 2.0 mg/kg/injection, schedule: Q01DX009 (sc), vehicle: water); 111 % of control (endpoint: median survival time, dose: 2.0 mg/kg/injection, schedule: Q04DX003 (ip), vehicle: water); 118 % of control (endpoint: median survival time, dose: 4.0 mg/kg/injection, schedule: Q01DX009 (ip), vehicle: saline); 155 % of control (endpoint: median survival time, dose: 4.0 mg/kg/injection, schedule: Q04DX003 (ip), vehicle: water); 161 % of control (endpoint: median survival time, dose: 4.0 mg/kg/injection, schedule: Q04DX003 (sc), vehicle: water). Besides, the T/C is 88 % of control (endpoint: median survival time, dose: 8.0 mg/kg/injection, schedule: Q04DX003 (ip), vehicle: water) and 116 % of control (endpoint: median survival time, dose: 8.0 mg/kg/injection, schedule: Q04DX003 (sc), vehicle: water).

Consider `COS(C)(=O)=O`, for which the T/C (endpoint: median survival time, dose: 23.0 mg/kg/injection, schedule: Q01DX Z (sc), vehicle: water) was 100 % of control; the T/C (endpoint: median survival time, dose: 39.0 mg/kg/injection, schedule: Q01DX Z (sc), vehicle: water) is 94 % of control; the T/C (endpoint: median survival time, dose: 65.0 mg/kg/injection, schedule: Q01DX Z (sc), vehicle: water) was 100 % of control.

On to `NC(=O)N(CCCl)N=O`, for which the T/C is, setting by setting: (endpoint: median survival time, dose: 0.39 mg/kg/injection, schedule: Q01DX Z (sc), vehicle: methylcellulose (MC)) 123 % of control; (endpoint: median survival time, dose: 0.65 mg/kg/injection, schedule: Q01DX Z (sc), vehicle: methylcellulose (MC)) 123 % of control; under setting [1], 168 % of control; (endpoint: median survival time, dose: 1.08 mg/kg/injection, schedule: Q01DX Z (sc), vehicle: methylcellulose (MC)) 247 % of control; under setting [2], 273 % of control; (endpoint: median survival time, dose: 1.8 mg/kg/injection, schedule: Q01DX Z (sc), vehicle: methylcellulose (MC)) 300 % of control. Besides, the T/C (endpoint: median survival time, dose: 1.8 mg/kg/injection, schedule: Q01DX Z (sc), vehicle: saline) is 420 % of control and 526 % of control; the T/C (endpoint: median survival time, dose: 3.0 mg/kg/injection, schedule: Q01DX Z (sc), vehicle: methylcellulose (MC)) is 309 % of control; the T/C under setting [3] was 365 % of control and 463 % of control; the T/C (endpoint: median survival time, dose: 5.0 mg/kg/injection, schedule: Q01DX001 (sc), vehicle: saline) was 157 % of control; the T/C under setting [4] is 270 % of control and 310 % of control; the T/C (endpoint: median survival time, dose: 5.0 mg/kg/injection, schedule: Q07DX Z (sc), vehicle: saline) is 200 % of control. The T/C reads like this: (endpoint: median survival time, dose: 8.4 mg/kg/injection, schedule: Q01DX001 (sc), vehicle: saline) 178 % of control; under setting [5], 170 % of control; (endpoint: median survival time, dose: 8.4 mg/kg/injection, schedule: Q07DX Z (sc), vehicle: saline) 289 % of control; (endpoint: median survival time, dose: 14.0 mg/kg/injection, schedule: Q01DX001 (sc), vehicle: saline) 178 % of control; under setting [6], 120 % of control; (endpoint: median survival time, dose: 14.0 mg/kg/injection, schedule: Q07DX Z (sc), vehicle: saline) 257 % of control. The T/C was 110 % of control under setting [7] and 152 % of control (endpoint: median survival time, dose: 23.0 mg/kg/injection, schedule: Q07DX Z (sc), vehicle: saline).

Regarding `CS(=O)(=O)OCC(O)C(O)C(O)C(O)COS(C)(=O)=O` (stereo not given), the T/C by setting is: (endpoint: median survival time, dose: 8.4 mg/kg/injection, schedule: Q01DX Z (sc), vehicle: methylcellulose (MC)) 103 % of control; (endpoint: median survival time, dose: 14.0 mg/kg/injection, schedule: Q01DX Z (sc), vehicle: methylcellulose (MC)) 100 % of control; (endpoint: median survival time, dose: 23.0 mg/kg/injection, schedule: Q01DX Z (sc), vehicle: methylcellulose (MC)) 96 % of control; (endpoint: median survival time, dose: 39.0 mg/kg/injection, schedule: Q01DX Z (sc), vehicle: methylcellulose (MC)) 100 % of control; (endpoint: median survival time, dose: 65.0 mg/kg/injection, schedule: Q01DX Z (sc), vehicle: methylcellulose (MC)) 100 % of control; (endpoint: median survival time, dose: 108.0 mg/kg/injection, schedule: Q01DX Z (sc), vehicle: methylcellulose (MC)) 100 % of control. In addition, the T/C by setting is: (endpoint: median survival time, dose: 180.0 mg/kg/injection, schedule: Q01DX Z (sc), vehicle: methylcellulose (MC)) 103 % of control; (endpoint: median survival time, dose: 300.0 mg/kg/injection, schedule: Q01DX Z (sc), vehicle: methylcellulose (MC)) 107 % of control; (endpoint: median survival time, dose: 500.0 mg/kg/injection, schedule: Q01DX Z (sc), vehicle: methylcellulose (MC)) 103 % of control.

As for `O=C1NC(O)CCN1C1OC(CO)C(O)C1O` (stereo not given), the T/C is, setting by setting: (endpoint: median survival time, dose: 125.0 mg/kg/injection, schedule: Q06HX018 (sc), vehicle: saline) 102 % of control; (endpoint: median survival time, dose: 125.0 mg/kg/injection, schedule: Q## X018 (sc), vehicle: saline) 102 % of control; (endpoint: median survival time, dose: 250.0 mg/kg/injection, schedule: Q06HX018 (sc), vehicle: saline) 102 % of control; (endpoint: median survival time, dose: 250.0 mg/kg/injection, schedule: Q## X018 (sc), vehicle: saline) 102 % of control; (endpoint: median survival time, dose: 500.0 mg/kg/injection, schedule: Q06HX018 (sc), vehicle: saline) 108 % of control; (endpoint: median survival time, dose: 500.0 mg/kg/injection, schedule: Q## X018 (sc), vehicle: saline) 108 % of control. For the same compound, the T/C is 107 % of control (endpoint: median survival time, dose: 1000.0 mg/kg/injection, schedule: Q06HX018 (sc), vehicle: saline) and 107 % of control (endpoint: median survival time, dose: 1000.0 mg/kg/injection, schedule: Q## X018 (sc), vehicle: saline).

On to `C[n+]1cccc2cc(NC(=O)c3ccc(C(=O)Nc4ccc5c(ccc[n+]5C)c4)cc3)ccc21`, for which the T/C reads like this: under setting [3], 100 % of control; under setting [4], 100 % of control; under setting [5], 100 % of control; under setting [6], 105 % of control; under setting [7], 100 % of control; (endpoint: median survival time, dose: 39.0 mg/kg/injection, schedule: Q01DX Z (sc), vehicle: saline) 233 % of control. Moreover, the T/C (endpoint: median survival time, dose: 65.0 mg/kg/injection, schedule: Q01DX Z (sc), vehicle: saline) is 172 % of control; the T/C (endpoint: median survival time, dose: 108.0 mg/kg/injection, schedule: Q01DX Z (sc), vehicle: saline) is 205 % of control; the T/C (endpoint: median survival time, dose: 180.0 mg/kg/injection, schedule: Q01DX Z (sc), vehicle: saline) was 194 % of control.

Take `O=c1[nH]cnc2[nH]ncc12`: the T/C was 97 % of control (endpoint: mean survival time, dose: 20.0 mg/kg/injection, schedule: Q01DX001 (ip), vehicle: saline); 101 % of control (endpoint: mean survival time, dose: 30.0 mg/kg/injection, schedule: Q01DX001 (ip), vehicle: saline); 98 % of control (endpoint: mean survival time, dose: 40.0 mg/kg/injection, schedule: Q01DX001 (ip), vehicle: saline); 98 % of control (endpoint: mean survival time, dose: 80.0 mg/kg/injection, schedule: Q01DX001 (ip), vehicle: saline); 99 % of control (2×) and 100 % of control (endpoint: median survival time, dose: 10.0 mg/kg/injection, schedule: Q01DX009 (ip), vehicle: saline); 90 % of control (endpoint: median survival time, dose: 20.0 mg/kg/injection, schedule: Q01DX001 (ip), vehicle: saline). Besides, the T/C is, setting by setting: (endpoint: median survival time, dose: 20.0 mg/kg/injection, schedule: Q01DX009 (ip), vehicle: saline) 100 % of control and 101 % of control (2×); (endpoint: median survival time, dose: 30.0 mg/kg/injection, schedule: Q01DX001 (ip), vehicle: saline) 100 % of control; (endpoint: median survival time, dose: 40.0 mg/kg/injection, schedule: Q01DX001 (ip), vehicle: saline) 100 % of control; (endpoint: median survival time, dose: 40.0 mg/kg/injection, schedule: Q01DX009 (ip), vehicle: saline) 99 % of control (2×) and 100 % of control; (endpoint: median survival time, dose: 80.0 mg/kg/injection, schedule: Q01DX001 (ip), vehicle: saline) 100 % of control.

Consider `C1CN1c1nc(N2CC2)nc(N2CC2)n1`, for which the T/C is, setting by setting: (endpoint: median survival time, dose: 0.23 mg/kg/injection, schedule: Q01DX Z (sc), vehicle: saline) 100 % of control; (endpoint: median survival time, dose: 0.39 mg/kg/injection, schedule: Q01DX Z (sc), vehicle: saline) 104 % of control and 105 % of control; under setting [1], 112 % of control and 115 % of control; under setting [2], 160 % of control; under setting [3], 108 % of control; under setting [4], 104 % of control and 120 % of control.
